Assays:
southern crabgrass [1] = assay: Test Example 4: herbicidal effect by soil treatment (Table 19, symbol F); format: in vivo, southern crabgrass (Digitaria ciliaris)
In short: (§1)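 Emulsion of test compound, water-diluted to predetermined amount, sprayed on soil after sowing (seed depth ~1.5 cm, sterilized diluvial soil). Greenhouse, 25–30° C. Effect graded at three weeks post-spray.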

redroot pigweed = assay: Test Example 4: herbicidal effect by soil treatment (Table 19, symbol N); format: in vivo, redroot pigweed (Amaranthus retroflexus)
In short: as §1

barnyard grass = assay: Test Example 5: herbicidal effect by foliage application, plastic box (Table 20, symbol H); format: in vivo, barnyard grass (Echinochloa crus-galli); conditions: foliage application, three weeks after application
In short: (§2)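 Post-emergence foliar test in sterilized diluvial soil. Compound applied as water-diluted emulsion at a predetermined rate to 14-day-old plants; evaluation at three weeks.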

wild oat [2] = assay: Test Example 5: herbicidal effect by foliage application, plastic box (Table 20, symbol I); format: in vivo, wild oat (Avena fatua); conditions: foliage application, three weeks after application
In short: as §2

false cleavers = assay: Test Example 5: herbicidal effect by foliage application, plastic box (Table 20, symbol Q); format: in vivo, false cleavers (Galium spurium); conditions: foliage application, three weeks after application
In short: as §2

Chinese sprangletop = assay: Test Example 3: herbicidal effect by foliage application, Wagner pot (Table 18, symbol D); format: in vivo, chinese sprangletop (Leptochloa chinensis)
In short: (§3)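 Plants were sown in alluvial soil held under 0.1–0.5 cm standing water and grown 14 days in a greenhouse at 25–30 °C. An emulsifiable formulation, water-diluted to the set dose, was then sprayed onto the foliage, and effects were scored three weeks later using previously defined criteria.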

oval-leafed pondweed = assay: Test Example 1: herbicidal activity, application before weed generation under submerged conditions (Table 16, symbol C); format: in vivo, oval-leafed pondweed (Monochoria vaginalis)
In short: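 Emulsion formulation, water-diluted to set dose, was put onto the flooded surface (4 cm depth, alluvial soil) the same day weeds were sown and 2.5-leaf rice transplanted. After 3 weeks at 25-30 °C under glass, each species was rated 0 (≤5% kill) to 5 (≥90% kill).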

velvetleaf = assay: Test Example 5: herbicidal effect by foliage application, plastic box (Table 20, symbol M); format: in vivo, velvetleaf (Abutilon theophrasti); conditions: foliage application, three weeks after application
In short: as §2

blackgrass [3] = assay: Test Example 5: herbicidal effect by foliage application, plastic box (Table 20, symbol J); format: in vivo, blackgrass (Alopecurus myosuroides); conditions: foliage application, three weeks after application
In short: as §2

lambsquarters = assay: Test Example 5: herbicidal effect by foliage application, plastic box (Table 20, symbol O); format: in vivo, lambsquarters (Chenopodium album); conditions: foliage application, three weeks after application
In short: as §2

wild oat [4] = assay: Test Example 4: herbicidal effect by soil treatment (Table 19, symbol I); format: in vivo, wild oat (Avena fatua)
In short: as §1

green foxtail = assay: Test Example 4: herbicidal effect by soil treatment (Table 19, symbol G); format: in vivo, green foxtail (Setaria viridis)
In short: as §1

Japanese bulrush = assay: Test Example 2: herbicidal activity, application during weed generation under submerged conditions (Table 17, symbol B); format: in vivo, Japanese bulrush (Schoenoplectus juncoides); conditions: application during weed generation, submerged conditions
In short: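 Steps: fill Wagner pots with alluvial soil; add water to give 4 cm depth; sow the species mixed; grow under glass at 25–30° C.; at 1–2 leaves apply water-diluted emulsion formulation to the water surface at a fixed herbicide amount; score after 3 weeks.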

blackgrass [5] = assay: Test Example 4: herbicidal effect by soil treatment (Table 19, symbol J); format: in vivo, blackgrass (Alopecurus myosuroides)
In short: as §1

southern crabgrass [6] = assay: Test Example 5: herbicidal effect by foliage application, plastic box (Table 20, symbol F); format: in vivo, southern crabgrass (Digitaria ciliaris); conditions: foliage application, three weeks after application
In short: as §2

rice flat sedge = assay: Test Example 3: herbicidal effect by foliage application, Wagner pot (Table 18, symbol E); format: in vivo, rice flat sedge (Cyperus iria)
In short: as §3

Italian ryegrass = assay: Test Example 5: herbicidal effect by foliage application, plastic box (Table 20, symbol K); format: in vivo, Italian ryegrass (Lolium multiflorum); conditions: foliage application, three weeks after application
In short: as §2

[7] = amount of applied herbicide 320 g/ha
[8] = amount of applied herbicide 310 g/ha

Structure (SMILES) | F: southern crabgrass, herbicidal effect grade (southern crabgrass [1]; [7]) | N: redroot pigweed, herbicidal effect grade (redroot pigweed; [7]) | H: barnyard grass, herbicidal effect grade (barnyard grass; 320 g/ha) | I: wild oat, herbicidal effect grade (wild oat [2]; 320 g/ha) | Q: false cleavers, herbicidal effect grade (false cleavers; 320 g/ha) | herbicidal effect on Chinese sprangletop (D) (Chinese sprangletop; 320 g/ha) | Herbicidal effect, C: oval-leafed pondweed (oval-leafed pondweed; [7]) | M: velvetleaf, herbicidal effect grade (velvetleaf; 320 g/ha) | J: blackgrass, herbicidal effect grade (blackgrass [3]; 320 g/ha) | O: lambsquarters, herbicidal effect grade (lambsquarters; 320 g/ha) | I: wild oat, herbicidal effect grade (wild oat [4]; [7]) | G: green foxtail, herbicidal effect grade (green foxtail; [7]) | herbicidal effect rating, B: Japanese bulrush (Japanese bulrush; AAH 320 g/ha) | J: blackgrass, herbicidal effect grade (blackgrass [5]; [7]) | F: southern crabgrass, herbicidal effect grade (southern crabgrass [6]; 320 g/ha) | herbicidal effect on rice flat sedge (E) (rice flat sedge; 320 g/ha) | K: Italian ryegrass, herbicidal effect grade (Italian ryegrass; 320 g/ha) | further results
CCCC(=O)Oc1c(C)nn(C)c(=O)c1-c1c(-c2ccc(F)cc2OCC)sc2cc(C)ccc12 [3-058] | 5 (Herbicidal rate of 90% or more (almost completely withered)) | 5 (Herbicidal rate of 90% or more (almost completely withered)) | 5 (Herbicidal rate of 90% or more (almost completely withered)) | 5 (Herbicidal rate of 90% or more (almost completely withered)) | 5 (Herbicidal rate of 90% or more (almost completely withered)) | 4 (Herbicidal rate of 70% or more and less than 90%) | 3 (Herbicidal rate of 40% or more and less than 70%) | 5 (Herbicidal rate of 90% or more (almost completely withered)) | 5 (Herbicidal rate of 90% or more (almost completely withered)) | 5 (Herbicidal rate of 90% or more (almost completely withered)) | 0 (Herbicidal rate of 5% or less (almost no effect)) | 2 (Herbicidal rate of 20% or more and less than 40%) | 5 (Herbicidal rate of 90% or more (almost completely withered)) | 3 (Herbicidal rate of 40% or more and less than 70%) | 5 (Herbicidal rate of 90% or more (almost completely withered)) | 5 (Herbicidal rate of 90% or more (almost completely withered)) | 5 (Herbicidal rate of 90% or more (almost completely withered)) | –
CCCC(=O)Oc1c(C)nn(C)c(=O)c1-c1c(-c2ccccc2OC)sc2cc(OCC)ccc12 [3-090] | – | – | – | – | – | – | – | – | – | – | – | – | – | – | – | – | – | F: southern crabgrass, herbicidal effect grade (southern crabgrass [1]; [8]): 3 (Herbicidal rate of 40% or more and less than 70%); N: redroot pigweed, herbicidal effect grade (redroot pigweed; [8]): 4 (Herbicidal rate of 70% or more and less than 90%); H: barnyard grass, herbicidal effect grade (barnyard grass; 310 g/ha): 5 (Herbicidal rate of 90% or more (almost completely withered)); I: wild oat, herbicidal effect grade (wild oat [2]; 310 g/ha): 4 (Herbicidal rate of 70% or more and less than 90%); Q: false cleavers, herbicidal effect grade (false cleavers; 310 g/ha): 5 (Herbicidal rate of 90% or more (almost completely withered)); herbicidal effect on Chinese sprangletop (D) (Chinese sprangletop; 310 g/ha): 5 (Herbicidal rate of 90% or more (almost completely withered)); Herbicidal effect, C: oval-leafed pondweed (oval-leafed pondweed; [8]): 4 (Herbicidal rate of 70% or more and less than 90%); M: velvetleaf, herbicidal effect grade (velvetleaf; 310 g/ha): 5 (Herbicidal rate of 90% or more (almost completely withered)); J: blackgrass, herbicidal effect grade (blackgrass [3]; 310 g/ha): 4 (Herbicidal rate of 70% or more and less than 90%); O: lambsquarters, herbicidal effect grade (lambsquarters; 310 g/ha): 5 (Herbicidal rate of 90% or more (almost completely withered)); I: wild oat, herbicidal effect grade (wild oat [4]; [8]): 0 (Herbicidal rate of 5% or less (almost no effect)); G: green foxtail, herbicidal effect grade (green foxtail; [8]): 3 (Herbicidal rate of 40% or more and less than 70%); herbicidal effect rating, B: Japanese bulrush (Japanese bulrush; AAH 310 g/ha): 4 (Herbicidal rate of 70% or more and less than 90%); J: blackgrass, herbicidal effect grade (blackgrass [5]; [8]): 4 (Herbicidal rate of 70% or more and less than 90%); F: southern crabgrass, herbicidal effect grade (southern crabgrass [6]; 310 g/ha): 3 (Herbicidal rate of 40% or more and less than 70%); herbicidal effect on rice flat sedge (E) (rice flat sedge; 310 g/ha): 5 (Herbicidal rate of 90% or more (almost completely withered)); K: Italian ryegrass, herbicidal effect grade (Italian ryegrass; 310 g/ha): 5 (Herbicidal rate of 90% or more (almost completely withered))
CCCC(=O)Oc1c(C)nn(C)c(=O)c1-c1c(-c2ccc(OC)cc2)sc2cc(OC)ccc12 [3-069] | 0 (Herbicidal rate of 5% or less (almost no effect)) | 0 (Herbicidal rate of 5% or less (almost no effect)) | 2 (Herbicidal rate of 20% or more and less than 40%) | 0 (Herbicidal rate of 5% or less (almost no effect)) | 4 (Herbicidal rate of 70% or more and less than 90%) | 0 (Herbicidal rate of 5% or less (almost no effect)) | 2 (Herbicidal rate of 20% or more and less than 40%) | 5 (Herbicidal rate of 90% or more (almost completely withered)) | 0 (Herbicidal rate of 5% or less (almost no effect)) | 5 (Herbicidal rate of 90% or more (almost completely withered)) | 0 (Herbicidal rate of 5% or less (almost no effect)) | 2 (Herbicidal rate of 20% or more and less than 40%) | 3 (Herbicidal rate of 40% or more and less than 70%) | 0 (Herbicidal rate of 5% or less (almost no effect)) | 0 (Herbicidal rate of 5% or less (almost no effect)) | 3 (Herbicidal rate of 40% or more and less than 70%) | 3 (Herbicidal rate of 40% or more and less than 70%) | –
Cc1ccc2oc(-c3ccc4c(c3)OCCO4)c(-c3c(O)c(C)nn(C)c3=O)c2c1 [9-012] | 2 (Herbicidal rate of 20% or more and less than 40%) | 3 (Herbicidal rate of 40% or more and less than 70%) | – | – | – | – | 5 (Herbicidal rate of 90% or more (almost completely withered)) | – | – | – | 0 (Herbicidal rate of 5% or less (almost no effect)) | 3 (Herbicidal rate of 40% or more and less than 70%) | 4 (Herbicidal rate of 70% or more and less than 90%) | 0 (Herbicidal rate of 5% or less (almost no effect)) | – | – | – | herbicidal effect on barnyard grass (H) (barnyard grass; 320 g/ha): 3 (Herbicidal rate of 40% or more and less than 70%); herbicidal effect on wild oat (I) (wild oat [2]; 320 g/ha): 0 (Herbicidal rate of 5% or less (almost no effect)); herbicidal effect on false cleavers (Q) (false cleavers; 320 g/ha): 3 (Herbicidal rate of 40% or more and less than 70%); Herbicidal effect on D (Chinese sprangletop), foliage application (Chinese sprangletop; [7]): 0 (Herbicidal rate of 5% or less (almost no effect)); herbicidal effect on velvetleaf (M) (velvetleaf; 320 g/ha): 5 (Herbicidal rate of 90% or more (almost completely withered)); herbicidal effect on blackgrass (J) (blackgrass [3]; 320 g/ha): 0 (Herbicidal rate of 5% or less (almost no effect)); herbicidal effect on lambsquarters (O) (lambsquarters; 320 g/ha): 3 (Herbicidal rate of 40% or more and less than 70%); herbicidal effect on southern crabgrass (F) (southern crabgrass [6]; 320 g/ha): 3 (Herbicidal rate of 40% or more and less than 70%); Herbicidal effect on E (rice flat sedge), foliage application (rice flat sedge; [7]): 5 (Herbicidal rate of 90% or more (almost completely withered)); herbicidal effect on Italian ryegrass (K) (Italian ryegrass; 320 g/ha): 5 (Herbicidal rate of 90% or more (almost completely withered))
